Assay results published in patent EP4063344A1, “SALT OF 2-ADAMANTYL ACETIC ACID HAVING ANTI-VIRAL ACTIVITY, FORMULATIONS THEREOF AND USES THEREOF” (Sciamannini, Umbro, priority 2021, dated 2022).

Test system: viral and/or fungal and/or bacterial
Conditions: no test conditions given

1-hexadecanaminium, N,N,N,trimethyl-tricyclo[3.3.1.13,7]decane-2-acetate(1:1) [salt of the invention]
viral and/or fungal and/or bacterial inhibition action: greater than 4 log
